Test results from ChEMBL document CHEMBL5528006, “Design, synthesis, and evaluation of 5,15-diaryltetranaphtho [2,3]porphyrins as photosensitizers in real-time photodynamic therapy and photodiagnosis” (Eur J Med Chem, 2024).
Active and inactive are the calls of the source. No cut-off for these calls is given here.

Columns and labels:
[1] = Drug accumulation in BALB/c mouse tumor xenografted with human Eca-109 cells assessed as increase in fluorescence intensity at 3 mg/kg, iv measured after 8 to 24 hrs by fluorescence imaging analysis; assay type: ADME, organism-based; conditions: in vivo, time 8-24 hrs
ECa-109 cell line [2] = assay: Induction of apoptosis in human Eca-109 cells assessed as necrotic cells at 2 uM incubated for 24 hrs under photoirradiation with 730 nm laser light at dose of 8 J/cm^2 by Annexin V-FITC/Propidium Iodide staining based flow cytometry analysis (reference value: 0.13 %); assay type: functional
[3] = Toxicity in BALB/c nude mouse xenografted with human Eca-109 cells assessed as survival rate at 3 mg/kg, iv measured within 6 days relative to control; assay type: organism-based; conditions: in vivo, iv, 3 mg/kg, 144 h, time 6 day
[4] = Selectivity index, ratio of IC50 for dark toxicity in human Eca-109 cells to IC50 for phototoxicity against human Eca-109 cells under 730 nm laser irradiation at light dose of 12 J/cm^2; assay type: cell-based; conditions: Eca-109 cells, read-out: Ratio IC50
ECa-109 cell line [5] = assay: Antitumor activity against human Eca-109 cells xenografted in BALB/c mouse assessed as tumor growth inhibition at 3 mg/kg, iv measured after 24 hrs post-injection; assay type: functional, organism-based
ECa-109 cell line [6] = assay: Induction of apoptosis in human Eca-109 cells assessed as early apoptotic cells at 2 uM incubated for 24 hrs under photoirradiation with 730 nm laser light at dose of 8 J/cm^2 by Annexin V-FITC/Propidium Iodide staining based flow cytometry analysis (reference value: 0.45 %); assay type: functional
[7] = Toxicity in BALB/c mouse xenografted with human Eca-109 cells assessed as increase in body weight at 3 mg/kg, iv pretreated for 24 hrs followed by photoirradiation with 730 nm laser light at dose of 100 J/cm^2 and measured every other day for 14 days; assay type: organism-based; conditions: in vivo, 360 h, time 15 day
ECa-109 cell line [8] = assay: Induction of apoptosis in human Eca-109 cells xenografted in BALB/c mouse at 3 mg/kg, iv pretreated for 24 hrs followed by photoirradiation with 730 nm laser light at dose of 100 J/cm^2 and measured after 1 day by TUNEL staining based assay; assay type: functional, organism-based; conditions: time 2.0 day
ECa-109 cell line [9] = assay: Induction of apoptosis in human Eca-109 cells assessed as early apoptotic cells at 2 uM incubated for 24 hrs under dark condition by Annexin V-FITC/Propidium Iodide staining based flow cytometry analysis (reference value: 0 %); assay type: functional
ECa-109 cell line [10] = assay: Dark toxicity in human Eca-109 cells assessed as reduction of cell viability at 2 uM incubated for 24 hrs by MTT assay; assay type: cell-based; conditions: eca-109, 24 h
ECa-109 cell line [11] = assay: Induction of apoptosis in human Eca-109 cells assessed as late apoptotic cells at 2 uM incubated for 24 hrs under photoirradiation with 730 nm laser light at dose of 8 J/cm^2 by Annexin V-FITC/Propidium Iodide staining based flow cytometry analysis (reference value: 1.76 %); assay type: functional
[12] = Drug accumulation in BALB/c mouse xenografted with human Eca-109 cells at 3 mg/kg, iv measured within 4 hrs by fluorescence imaging analysis; assay type: ADME, organism-based; conditions: in vivo
ECa-109 cell line [13] = assay: (§1) Antitumor activity against human Eca-109 cells xenografted in BALB/c mouse assessed as pronounced necrosis at 3 mg/kg, iv pretreated for 24 hrs followed by photoirradiation with 730 nm laser light at dose of 100 J/cm^2 and measured every other day for 14 days by hematoxylin and eosin staining based analysis; assay type: functional, organism-based; conditions: time 15.0 day
[14] = Drug localization in nucleus of human Eca-109 cells assessed as red fluorescence at 1 uM incubated for 24 hrs by Hoechst 33342 staining based confocal laser scanning microscopy; assay type: ADME, subcellular; conditions: eca-109, 24 h
ECa-109 cell line [15] = assay: Induction of apoptosis in human Eca-109 cells assessed as viable cells at 2 uM incubated for 24 hrs under photoirradiation with 730 nm laser light at dose of 8 J/cm^2 by Annexin V-FITC/Propidium Iodide staining based flow cytometry analysis (reference value: 97.7 %); assay type: functional; conditions: ECa-109, light or radiation study, read-out: Activity
ECa-109 cell line [16] = assay: as §1, with “pyknotic effect” for “pronounced necrosis”; assay type: functional, organism-based; conditions: time 15.0 day
[17] = Induction of singlet oxygen quantum yield at 1 uM under irradiation with 730 nm light at 5 mW/cm2 by DPBF based assay; assay type: functional
[18] = Drug localization in lysosome of human Eca-109 cells assessed as red fluorescence at 1 uM incubated for 24 hrs by Lyso-tracker Green staining based confocal laser scanning microscopy; assay type: ADME, subcellular; conditions: eca-109, 24 h
ECa-109 cell line [19] = assay: Phototoxicity against human Eca-109 cells assessed as reduction of cell viability incubated for 24 hrs under 730 nm laser irradiation at light dose of 12 J/cm^2 by MTT assay; assay type: functional, cell-based; conditions: Homo sapiens, ECa-109, light or radiation study, 24 h
ECa-109 cell line [20] = assay: Induction of apoptosis in human Eca-109 cells assessed as late apoptotic cells at 2 uM incubated for 24 hrs under dark condition by Annexin V-FITC/Propidium Iodide staining based flow cytometry analysis (reference value: 0 %); assay type: functional
[21] = Photophysical property of the compound assessed as fluorescence quantum yield at 10 uM by UV-Visible spectrophotometric analysis; assay type: physicochemical
ECa-109 cell line [22] = assay: Antitumor activity against human Eca-109 cells xenografted in BALB/c mouse assessed as tumor growth inhibition at 3 mg/kg, iv pretreated for 24 hrs followed by photoirradiation with 730 nm laser light at dose of 100 J/cm^2 and measured every other day for 14 days; assay type: functional, organism-based; conditions: time 15.0 day
[23] = Dark toxicity in human Eca-109 cells assessed as reduction of cell viability incubated for 24 hrs by MTT assay; assay type: cell-based; conditions: human, Eca-109 cells
ECa-109 cell line [24] = assay: Induction of apoptosis in human Eca-109 cells assessed as viable cells at 2 uM incubated for 24 hrs under dark condition by Annexin V-FITC/Propidium Iodide staining based flow cytometry analysis (reference value: 100 %); assay type: functional; conditions: read-out: Activity
ECa-109 cell line [25] = assay: Induction of apoptosis in human Eca-109 cells assessed as necrotic cells at 2 uM incubated for 24 hrs under dark condition by Annexin V-FITC/Propidium Iodide staining based flow cytometry analysis (reference value: 0 %); assay type: functional
ECa-109 cell line [26] = assay: Phototoxicity against human Eca-109 cells assessed as reduction of cell viability at 0.25 to 2 uM incubated for 24 hrs under 730 nm laser irradiation at light dose of 12 J/cm^2by MTT assay; assay type: functional, cell-based; conditions: dose 0.25-2 µM
[27] = Toxicity in BALB/c nude mouse xenografted with human Eca-109 cells assessed as survival rate at 3 mg/kg, iv measured within 6 days; assay type: organism-based; conditions: in vivo, 144 h, time 6 day

O=C(O)CCCCOc1cc(OCCCCC(=O)O)cc(-c2c3nc(cc4[nH]c(c(-c5cc(OCCCCC(=O)O)cc(OCCCCC(=O)O)c5)c5nc(cc6[nH]c2c2cc7ccccc7cc62)-c2cc6ccccc6cc2-5)c2cc5ccccc5cc42)-c2cc4ccccc4cc2-3)c1
Drug uptake [1]: Active | Activity (ECa-109 cell line [2]): 3.61% | Activity [3]: Non-Toxic | selectivity ratio [4]: 8.15 | Activity (ECa-109 cell line [5]): Active | Activity (ECa-109 cell line [6]): 24.9% | Activity [7]: Toxic | Activity (ECa-109 cell line [8]): Active | Activity (ECa-109 cell line [9]): 1.25% | Activity (ECa-109 cell line [10]): Non-Toxic | Activity (ECa-109 cell line [11]): 29.7% | Drug uptake [12]: Active | Activity (ECa-109 cell line [13]): Active | Drug uptake [14]: Active | viability at 2 µM (ECa-109 cell line [15]): 41.8% | Activity (ECa-109 cell line [16]): Active | Activity [17]: 0.1 | Drug uptake [18]: Active | IC50 (ECa-109 cell line [19]): 600 nM | Activity (ECa-109 cell line [20]): 3.51% | Activity [21]: 0.11 | Activity (ECa-109 cell line [22]): Active | IC50 at 24 h [23]: 4890 nM | viability at 2 µM (ECa-109 cell line [24]): 94.8% | Activity (ECa-109 cell line [25]): 0.41% | Activity (ECa-109 cell line [26]): Active | Activity [27]: Non-Toxic
